Laboratory results: PubChem BioAssay AID2060335 (Molecular Pharmacology Branch, DTP, NCI, 2025)

Tested on: DU-145 multicell spheroids with HUVEC/MSC, viability
Assay: Anticancer human tumor DU-145 cell line growth inhibition [IpAb];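 also: spheroids exposed to agents for seven days before measurement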;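 as to viability, T/C: percent of DMSO vehicle control viability so 100% = untreated level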
Settings: for IC50: curve of first compound; for viability, T/C: stronger effect = lower value
Outline: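 Spheroids of 60% malignant cells, 25% HUVEC and 15% MSC were exposed to targeted agents combined with ipatasertib or abemaciclib. Doses started at or near clinical Cmax (10 microM when unknown) and fell in half-log steps.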

[1] = second compound 0.01 µM, first compound 0.00316 µM
[2] = second compound 0.01 µM, first compound 0.01 µM
[3] = second compound 0.01 µM, first compound 0.0316 µM
[4] = second compound 0.01 µM, first compound 0.1 µM
[5] = second compound 0.0316 µM, first compound 0.00316 µM
[6] = second compound 0.0316 µM, first compound 0.01 µM
[7] = second compound 0.0316 µM, first compound 0.0316 µM
[8] = second compound 0.0316 µM, first compound 0.1 µM
[9] = second compound 0.1 µM, first compound 0.00316 µM
[10] = second compound 0.1 µM, first compound 0.01 µM
[11] = second compound 0.1 µM, first compound 0.0316 µM
[12] = second compound 0.1 µM, first compound 0.1 µM
[13] = second compound 0.316 µM, first compound 0.00316 µM
[14] = second compound 0.316 µM, first compound 0.01 µM
[15] = second compound 0.316 µM, first compound 0.0316 µM
[16] = second compound 0.316 µM, first compound 0.1 µM
[17] = second compound 1 µM, first compound 0.00316 µM
[18] = second compound 1 µM, first compound 0.01 µM
[19] = second compound 1 µM, first compound 0.0316 µM
[20] = second compound 1 µM, first compound 0.1 µM
[21] = second compound 0.01 µM, first compound 0.316 µM
[22] = second compound 0.01 µM, first compound 1 µM
[23] = second compound 0.01 µM, first compound 3.16 µM
[24] = second compound 0.01 µM, first compound 10 µM
[25] = second compound 0.0316 µM, first compound 0.316 µM
[26] = second compound 0.0316 µM, first compound 1 µM
[27] = second compound 0.0316 µM, first compound 3.16 µM
[28] = second compound 0.0316 µM, first compound 10 µM
[29] = second compound 0.1 µM, first compound 0.316 µM
[30] = second compound 0.1 µM, first compound 1 µM
[31] = second compound 0.1 µM, first compound 3.16 µM
[32] = second compound 0.1 µM, first compound 10 µM
[33] = second compound 0.316 µM, first compound 0.316 µM
[34] = second compound 0.316 µM, first compound 1 µM
[35] = second compound 0.316 µM, first compound 3.16 µM
[36] = second compound 0.316 µM, first compound 10 µM
[37] = second compound 1 µM, first compound 0.316 µM
[38] = second compound 1 µM, first compound 1 µM
[39] = second compound 1 µM, first compound 3.16 µM
[40] = second compound 1 µM, first compound 10 µM

Row | Compound | IC50 (second compound 0.01 µM) | IC50 (second compound 0.0316 µM) | IC50 (second compound 0.1 µM) | IC50 (second compound 0.316 µM) | IC50 (second compound 1 µM) | viability, T/C [3] | viability, T/C [4] | viability, T/C [7] | viability, T/C [8] | viability, T/C [11] | viability, T/C [12] | viability, T/C [15] | viability, T/C [16] | viability, T/C [19] | viability, T/C [20] | viability, T/C [21] | viability, T/C [22] | viability, T/C [25] | viability, T/C [26] | viability, T/C [29] | further results
1 | CC(C)n1nc(-c2ccc3oc(N)nc3c2)c2c(N)ncnc21 + CCN1CCN(Cc2ccc(Nc3ncc(F)c(-c4cc(F)c5nc(C)n(C(C)C)c5c4)n3)nc2)CC1 | 1.9 nM | 1.49 nM | 1.46 nM | 1.84 nM | 1.86 nM | 11.3% | 9.72% | 11.7% | 8.9% | 12.9% | 9.08% | 16% | 12.5% | 25.1% | 20.3% | – | – | – | – | – | viability, T/C (second compound 0.01 µM, first compound 0.000316 µM): 97.3%; viability, T/C (second compound 0.01 µM, first compound 0.001 µM): 64.2%; viability, T/C [1]: 39.3%; viability, T/C [2]: 21.2%; viability, T/C (second compound 0.0316 µM, first compound 0.000316 µM): 82.2%; viability, T/C (second compound 0.0316 µM, first compound 0.001 µM): 56%; viability, T/C [5]: 38.5%; viability, T/C [6]: 19.9%; viability, T/C (second compound 0.1 µM, first compound 0.000316 µM): 76.9%; viability, T/C (second compound 0.1 µM, first compound 0.001 µM): 56.2%; viability, T/C [9]: 36.9%; viability, T/C [10]: 23.9%; viability, T/C (second compound 0.316 µM, first compound 0.000316 µM): 69.2%; viability, T/C (second compound 0.316 µM, first compound 0.001 µM): 58.8%; viability, T/C [13]: 40.9%; viability, T/C [14]: 31.5%; viability, T/C (second compound 1 µM, first compound 0.000316 µM): 60.3%; viability, T/C (second compound 1 µM, first compound 0.001 µM): 56.5%; viability, T/C [17]: 44.4%; viability, T/C [18]: 33.8%
2 | CC1(C)CCC(CN2CCN(c3ccc(C(=O)NS(=O)(=O)c4ccc(NCC5CCOCC5)c([N+](=O)[O-])c4)c(Oc4cnc5[nH]ccc5c4)c3)CC2)=C(c2ccc(Cl)cc2)C1 + CCN1CCN(Cc2ccc(Nc3ncc(F)c(-c4cc(F)c5nc(C)n(C(C)C)c5c4)n3)nc2)CC1 | 4890 nM | 4110 nM | 4190 nM | 3640 nM | 3430 nM | 108% | 104% | 95.8% | 101% | 94.8% | 102% | 84% | 88.2% | 71.3% | 72.8% | 103% | 99.8% | 97% | 90.4% | 92% | viability, T/C [23]: 70.2%; viability, T/C [24]: 16.7%; viability, T/C [27]: 61.5%; viability, T/C [28]: 11.1%; viability, T/C [30]: 78.9%; viability, T/C [31]: 64.3%; viability, T/C [32]: 13.5%; viability, T/C [33]: 80.3%; viability, T/C [34]: 72.5%; viability, T/C [35]: 56.7%; viability, T/C [36]: 10.8%; viability, T/C [37]: 68.3%; viability, T/C [38]: 69.5%; viability, T/C [39]: 52.2%; viability, T/C [40]: 12.3%
3 | CCCS(=O)(=O)Nc1ccc(F)c(C(=O)c2c[nH]c3ncc(-c4ccc(Cl)cc4)cc23)c1F + CCN1CCN(Cc2ccc(Nc3ncc(F)c(-c4cc(F)c5nc(C)n(C(C)C)c5c4)n3)nc2)CC1 | > 10000 nM | > 10000 nM | > 10000 nM | > 10000 nM | > 10000 nM | 107% | 107% | 101% | 107% | 95.8% | 95.5% | 80.3% | 84.9% | 70.1% | 66.9% | 102% | 115% | 105% | 115% | 99.3% | viability, T/C [23]: 106%; viability, T/C [24]: 79.8%; viability, T/C [27]: 106%; viability, T/C [28]: 72.4%; viability, T/C [30]: 107%; viability, T/C [31]: 98.3%; viability, T/C [32]: 65.9%; viability, T/C [33]: 87.1%; viability, T/C [34]: 88.6%; viability, T/C [35]: 89.4%; viability, T/C [36]: 52.4%; viability, T/C [37]: 67%; viability, T/C [38]: 64.6%; viability, T/C [39]: 69.9%; viability, T/C [40]: 54.8%
4 | COc1c(OCCCN2CCOCC2)ccc2c3n(c(=NC(=O)c4cnc(N)nc4)nc12)CCN3 + CCN1CCN(Cc2ccc(Nc3ncc(F)c(-c4cc(F)c5nc(C)n(C(C)C)c5c4)n3)nc2)CC1 | 7.99 nM | 6.14 nM | 4.88 nM | 4.36 nM | 4.94 nM | 28% | 15.2% | 25.3% | 13.5% | 23.4% | 14.2% | 29.7% | 17.7% | 32.9% | 25.7% | 9.78% | 11.9% | 9.95% | 11.3% | 10.9% | viability, T/C [1]: 79.2%; viability, T/C [2]: 41.3%; viability, T/C [5]: 62.9%; viability, T/C [6]: 39.9%; viability, T/C [9]: 57.1%; viability, T/C [10]: 38%; viability, T/C [30]: 11.5%; viability, T/C [13]: 53.6%; viability, T/C [14]: 40.4%; viability, T/C [33]: 13.5%; viability, T/C [34]: 14%; viability, T/C [17]: 54.4%; viability, T/C [18]: 42.8%; viability, T/C [37]: 19.7%; viability, T/C [38]: 20.8%
